Key:
cannabinoid CB1 receptor = molecular target: T1, cannabinoid CB1 receptor (Homo sapiens, UniProt P21554); experiment: cAMP accumulation, HeLa cells transfected with CB1 receptor, D1 receptor and AC7; assay type: cell-based; conditions: for Effect on cAMP accumulation in the presence of dopamine: CB1 receptor, D1, AC7, DCUK-OEt 10 μM, ACEA 10 μM, FIG. 1
T1 construct: expressed in transfected cells; host or cells: HeLa (ATCC), calcium phosphate transient transfection

[1] = molecular target: GABA site, GABA-A Receptor; experiment: PDSP radioligand displacement, [^3H]Muscimol; design: species or system rat; conditions: read-out: Binding constant Ki, GABA site, GABA-A Receptor
[2] = molecular target: T2, GABA-A receptors (α1, β2, γ2s subunits) (UniProt P18508+P47870+P62813); experiment: Two-electrode voltage clamp, GABA-A receptors expressed in Xenopus oocytes; assay type: cell-based, rat α1 and γ2s, human β2; conditions: for Efficacy among five DCUK derivatives: potentiation of GABA response, FIG. 4C
T2 construct: expressed in transfected cells; host or cells: Xenopus laevis oocytes injected with capped cRNAs (α1:β2:γ2s 2:2:20 ng)
T2 sequence (P62813 28-455): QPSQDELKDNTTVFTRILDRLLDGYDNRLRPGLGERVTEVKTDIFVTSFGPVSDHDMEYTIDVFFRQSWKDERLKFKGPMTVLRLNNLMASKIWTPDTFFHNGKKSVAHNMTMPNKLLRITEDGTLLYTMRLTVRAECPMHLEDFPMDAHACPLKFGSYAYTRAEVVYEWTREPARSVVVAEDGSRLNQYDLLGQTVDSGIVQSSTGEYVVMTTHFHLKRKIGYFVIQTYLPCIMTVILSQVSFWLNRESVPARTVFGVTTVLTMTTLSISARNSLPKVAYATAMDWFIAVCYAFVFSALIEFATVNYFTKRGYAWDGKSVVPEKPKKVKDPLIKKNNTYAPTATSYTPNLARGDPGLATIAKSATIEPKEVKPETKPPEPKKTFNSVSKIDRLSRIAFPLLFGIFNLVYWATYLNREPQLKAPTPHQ
T2 sequence (P47870 26-474 isoform P47870-1 limits assumed): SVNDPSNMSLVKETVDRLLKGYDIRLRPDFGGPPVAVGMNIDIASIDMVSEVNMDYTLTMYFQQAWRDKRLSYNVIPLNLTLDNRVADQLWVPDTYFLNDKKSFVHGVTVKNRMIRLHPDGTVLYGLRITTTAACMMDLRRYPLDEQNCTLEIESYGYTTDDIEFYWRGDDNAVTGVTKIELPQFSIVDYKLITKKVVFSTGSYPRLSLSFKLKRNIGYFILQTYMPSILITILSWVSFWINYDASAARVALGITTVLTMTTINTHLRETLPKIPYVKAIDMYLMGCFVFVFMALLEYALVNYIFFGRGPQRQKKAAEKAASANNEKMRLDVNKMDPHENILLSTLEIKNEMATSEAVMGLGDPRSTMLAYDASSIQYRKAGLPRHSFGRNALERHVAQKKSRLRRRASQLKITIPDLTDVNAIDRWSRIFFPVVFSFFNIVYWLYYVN
T2 sequence (P18508 39-466): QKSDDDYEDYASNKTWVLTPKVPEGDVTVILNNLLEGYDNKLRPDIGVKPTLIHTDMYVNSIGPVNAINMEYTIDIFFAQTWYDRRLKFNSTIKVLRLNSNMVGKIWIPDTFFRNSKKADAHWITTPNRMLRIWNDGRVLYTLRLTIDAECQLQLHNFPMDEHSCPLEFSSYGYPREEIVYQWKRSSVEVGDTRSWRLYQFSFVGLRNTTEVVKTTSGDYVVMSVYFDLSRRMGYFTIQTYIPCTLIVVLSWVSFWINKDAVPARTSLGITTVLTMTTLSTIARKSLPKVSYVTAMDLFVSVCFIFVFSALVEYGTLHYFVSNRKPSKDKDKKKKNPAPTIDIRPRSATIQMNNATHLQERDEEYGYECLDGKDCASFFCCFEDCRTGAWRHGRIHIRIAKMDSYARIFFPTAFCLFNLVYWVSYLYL
Method: Xenopus laevis frogs were obtained from Nasco (Fort Atkinson, Wis., USA). The complementary DNAs encoding the GABAA subunits rat α1 and γ2s and human β2 were provided by Dr. M. H. Akabas and Dr. Paul Whiting, respectively. The in vitro transcription of α1, β2, and γ2s subunits was performed using mMessage mMachine® (Life Technologies, Grand Island, N.Y.). After isolation of Xenopus laevis oocytes, they were injected with capped complementary RNAs encoding α1, β2, and γ2s subunits in a ratio 2:2:20 ng. The injected oocytes were incubated at 15° C. in sterilized Barth's solution [MBS; composition: 88 mM NaCl, 1 mM KCl, 10 mM HEPES, 0.82 mM MgSO4, 2.4 mM NaHCO3, 0.91 mM CaCl2), and 0.33 mM Ca(NO3)2, pH 7.5] for 3-5 days before recording. All surgery was performed according to an approved institutional protocol. The responses of GABAARs expressed in oocytes were studied through two-electrode voltage clamp (Oocyte Clamp OC-725C, Warner Instruments, Hamden, Conn.), recording through a POWERLAB 4/30 system (ADInstruments, Colorado Springs, Colo.). The oocyte was placed in a chamber perfused with MBS, and voltage-clamped at −70 mV.

[3] = tested on: rats treated with Complete Freund's Adjuvant; experiment: Combination with morphine, CFA-induced thermal hyperalgesia (radiant heat paw withdrawal test); assay type: in vivo, rat; conditions: thermal hyperalgesia after CFA
Method: Thermal Hypersensitivity Test (Radiant Heat Paw Withdrawal Test). Rats were placed in clear plastic chambers on a glass surface and were habituated for 15 minutes before testing. Thermal sensitivity was measured by using paw withdrawal latency to a radiant heat stimulus. A radiant heat source (i.e., infrared) was activated with a timer and focused onto the plantar surface of the left hind paw. A motion detector that halted both lamp and timer when the paw was withdrawn determined paw withdrawal latency. The latencies were measured before and after drug or vehicle administration. A maximum cutoff of 33 seconds was used to prevent tissue damage.

[4] = tested on: alcohol-dependent male Wistar rats; experiment: Alcohol deprivation model of relapse drinking in alcohol-dependent rats; assay type: in vivo, rat; conditions: for Relapse drinking (alcohol intake after deprivation): FIG. 17
Method: This model is thoroughly described in a paper by (Spanagel and Holter, 1999). The model consists of a conditioning phase where individually housed male Wistar rats are allowed ad libitum access to food and 0, 5, 10 and 20% alcohol solutions in a four-bottle choice paradigm. The rats are weighed every 3rd and 4th day and food and fluid consumption is measured. The positions of bottles are changed once a week and after two months of continuous alcohol access, rats are deprived of alcohol for two weeks. After the deprivation phase, all alcohol solutions are presented again for 5 weeks and the procedure is repeated for ˜1 year. At this point an alcohol deprivation phase is instituted. Pre-deprivation (baseline) drinking is recorded for 3-4 days and then all alcohol is taken from the animals and they are only given water to drink for two weeks. Following alcohol deprivation, alcohol intake (total grams of ethanol/kg body weight) and water intake (ml/kg body weight) are measured daily. The alcohol preference ratio is calculated as (ethanol consumption [g/kg])/(water consumption [ml/kg]).
For this experiment, animals were divided into groups of 6-8 rats such that the mean baseline total alcohol intake was approximately the same (˜2.8 g/kg/day) across all groups. Baseline drinking was monitored followed by 14 days of alcohol deprivation. Each animal then received i.p. injections of DCUK-OEt twice daily at 12 hour intervals starting at 7 PM prior to the reintroduction of ethanol for a total of 3 (20 mg/kg) or 5 injections (75 mg/kg). Acamprosate, an already marketed agent for reducing relapse, was used as a positive control and four doses of 50 mg/kg or 200 mg/kg were injected over a two-day period. Alcohol bottles were re-introduced after the first (acamprosate) or second (DCUK-OEt) injection.

ethanol dependent rats = experiment: Operant responding for alcohol in ethanol vapor-exposed dependent rats; assay type: in vivo, rat; conditions: FIG. 18
Excerpt: This example illustrates that ethanol dependent rats are motivated to work for ethanol reward during a period of forced abstinence and that DCUK-OEt reduces responding for the alcohol reward.
The methods used in this study are extensively described in (Vendruscolo et al., 2012). The rats were first trained to self-administer ethanol in an operant chamber. The rats were given free-choice access to alcohol (10% w/v) and water for 1 day in their home cages to habituate them to the taste of alcohol. The rats were then subjected to an overnight session in the operant chambers with access to one lever that delivered water (FR1). Food was available ad libitum during this training. After 1 day off, the rats were subjected to a 2 hour session (FR1) for 1 day and a 1 hour session (FR1) the next day, with one lever delivering alcohol. All of the subsequent sessions lasted 30 minutes, and two levers were available (left lever: water; right lever: alcohol). Once trained, the rats were made dependent by chronic, intermittent exposure to alcohol vapors (Gilpin et al., 2008). They underwent cycles of 14 hours of ethanol exposure (blood alcohol levels during vapor exposure ranged between 150 and 250 mg %) and 10 hours in the absence of ethanol vapor, during which behavioral testing for acute withdrawal occurred (i.e., 6-8 hours after vapor was turned off, when brain and blood alcohol levels were negligible). Nondependent rats were those not exposed to alcohol vapor. Pharmacological testing occurred after at least 2 months of vapor exposure, when full dependence was observed. DCUKA-OEt was administered i.p. at the doses specified in FIG. 18, sixty minutes prior to placing the animal in the operant chamber. The vehicle for DCUK-OEt was injected in certain animals as a control.

[5] = tested on: rats treated with cisplatin; experiment: Reversal of cisplatin-induced neuropathic pain (von Frey mechanical pain threshold); assay type: in vivo, rat; conditions: cisplatin i.p. 7 mg/kg total, day 14; 30 mg/kg oral (equimolar to DCUKA and BCUKA); 1 and 2 hours; FIG. 6
[6] = tested on: rats treated with Complete Freund's Adjuvant; experiment: Naltrindole reversal of the effect of DCUKA on CFA-induced neuropathic pain; assay type: in vivo, rat
Method: Rats were tested for baseline mechanical pain threshold (von Frey test) and given an intraplantar injection of Complete Freunds Adjuvant (CFA) in the left hind paw.

delta opiate receptor [7] = molecular target: T3, delta opiate receptor (Homo sapiens, UniProt P41143); experiment: cAMP accumulation, HeLa cells transfected with D1 receptor, DOR and AC5; assay type: cell-based; design: expressed in transfected cells; conditions: not shown
T3 sequence (P41143 whole entry): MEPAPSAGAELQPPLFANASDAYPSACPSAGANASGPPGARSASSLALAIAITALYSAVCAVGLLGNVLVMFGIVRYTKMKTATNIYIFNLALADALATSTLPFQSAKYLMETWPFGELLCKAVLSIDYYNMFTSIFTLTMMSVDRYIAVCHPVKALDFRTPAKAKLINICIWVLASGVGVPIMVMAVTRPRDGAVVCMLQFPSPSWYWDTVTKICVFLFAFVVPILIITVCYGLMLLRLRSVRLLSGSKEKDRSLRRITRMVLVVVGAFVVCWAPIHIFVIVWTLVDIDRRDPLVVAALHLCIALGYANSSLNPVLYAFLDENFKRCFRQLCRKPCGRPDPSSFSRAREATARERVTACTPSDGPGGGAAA

delta opiate receptor [8] = molecular target: T3, delta opiate receptor; experiment: cAMP accumulation, HEK293 cells transfected with DA receptor, delta opiate receptor and AC7; assay type: cell-based; design: expressed in transfected cells; host or cells: HEK293 (ATCC), calcium phosphate transient transfection; conditions: naltrindole 10 μM
[9] = tested on: rats treated with streptozotocin; experiment: Combination with aspirin, STZ-induced neuropathic pain (von Frey); assay type: in vivo, rat; conditions: aspirin 25 mg/kg, 60 min before test; FIG. 16
Method: After administration of streptozotocin (STZ) as described in Example 5, rats were tested for allodynia using a von Frey apparatus. Sixty minutes prior to testing, rats were divided into four groups. Group 1 received vehicle; group 2 received DCUKA; group 3 received aspirin; and group 4 received a combination of DCUKA and aspirin.

[10] = tested on: rats treated with Complete Freund's Adjuvant; experiment: Combination with morphine, CFA-induced pain, mechanical pain threshold; assay type: in vivo, rat; conditions: FIG. 15 Panel A

T1 sequence (P21554 whole entry): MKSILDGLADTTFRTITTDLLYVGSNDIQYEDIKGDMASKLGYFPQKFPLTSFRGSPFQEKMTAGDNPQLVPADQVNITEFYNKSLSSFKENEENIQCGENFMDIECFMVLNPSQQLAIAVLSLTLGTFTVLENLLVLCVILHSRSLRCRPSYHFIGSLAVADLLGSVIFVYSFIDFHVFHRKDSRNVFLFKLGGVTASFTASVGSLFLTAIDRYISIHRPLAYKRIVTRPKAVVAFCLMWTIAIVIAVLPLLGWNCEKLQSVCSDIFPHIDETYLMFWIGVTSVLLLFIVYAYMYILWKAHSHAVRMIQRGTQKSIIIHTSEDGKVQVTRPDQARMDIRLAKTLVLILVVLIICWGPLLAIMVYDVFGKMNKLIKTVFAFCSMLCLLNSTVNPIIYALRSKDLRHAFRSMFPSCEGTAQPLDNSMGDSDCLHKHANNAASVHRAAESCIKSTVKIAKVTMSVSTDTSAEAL

## CCCCC/C=C\C/C=C\C/C=C\C/C=C\CCCC(=O)NCCCl [ACEA, reference compound]
Cannabinoid CB1 receptor
  Effect on cAMP accumulation in the presence of dopamine: increased the accumulation of cAMP

## CCOC(=O)c1cc(NC(=O)N(c2ccccc2)c2ccccc2)c2c(Cl)cc(Cl)cc2n1 [DCUK-OEt]
[1]
  Ki: 1700 ± 300 nM
Cannabinoid CB1 receptor; AC7, alone and together with ACEA
  Character of action at the CB1 cannabinoid receptor: weak partial agonist
Cannabinoid CB1 receptor
  Effect on cAMP accumulation in the presence of dopamine: significant increase in cAMP accumulation
[2]; FIG. 4A
  Character of action at the GABA-A receptor: positive allosteric modulators (PAM)
[2]; co-applied with EC10 GABA, FIG. 4A
  GABA-induced chloride currents: significantly enhanced GABA-induced currents
[2]
  Efficacy among five DCUK derivatives: most efficacious
[2]; without GABA, FIG. 4A
  Chloride currents, compound alone: no effect on chloride currents by themselves
[3]; 6.4 mg of DCUK-OEt combined with 0.2 mg/kg morphine
  Antihyperalgesic response: 40%
[4]; 20 mg/kg i.p. twice daily, 3 injections
  Relapse drinking (alcohol intake after deprivation): transient, but significant, reduction in relapse drinking
[4]; 75 mg/kg DCUK-OEt, data not shown
  Water consumption: increased consumption of water
[4]; 75 mg/kg i.p. twice daily, 5 injections
  Relapse drinking (alcohol intake after deprivation): almost complete abolition of alcohol intake
Ethanol dependent rats; 20 mg/kg i.p., 60 min before session, ethanol vapor-exposed rats
  Alcohol self-administration: brought the ethanol vapor exposed rats down to the same level of self-administration as non-ethanol pretreated control rats
Ethanol dependent rats; 35 and 50 mg/kg i.p., alcohol-dependent rats
  Lever pressing for ethanol: reduced lever pressing for ethanol to even lower levels
Ethanol dependent rats; all doses tested, alcohol dependent rats
  Lever pressing for water: No effect

## CCCC(=O)c1cc(NC(=O)N(c2ccccc2)c2ccccc2)c2c(Cl)cc(Cl)cc2n1 [DCUK-butanone, 3-(2-Butyryl-5,7-dichloroquinolin-4-yl)-1,1-diphenylurea]
[2]
  Efficacy among five DCUK derivatives: most efficacious

## NCC1(CC(=O)O)CCCCC1 [Gabapentin, gabapentin, reference compound]
[5]
  Mechanical pain threshold, ratio to baseline: did not significantly reverse

## Oc1ccc2c3c1O[C@H]1c4[nH]c5ccccc5c4C[C@@]4(O)[C@@H](C2)N(CC2CC2)CC[C@]314 [Naltrindole, reference compound]
[6]; Naltrindole 10 μg per paw s.c. 45 min after DCUKA 50 mg/kg oral, tested 15 min later
  Effect of intraplantar naltrindole on the DCUKA effect: reversed the anti-allodynic effect of DCUKA
[6]; Naltrindole 10 μg per paw with vehicle
  Effect of naltrindole alone on pain threshold: no effect on its own
Delta opiate receptor [7]
  Effect of DOR antagonist on the DCUKA inhibition of cAMP accumulation: reversed
Delta opiate receptor [8]
  Effect of DOR antagonist on the BCUKA-induced cAMP increase: reversed

## CC(=O)NCCCS(=O)(=O)O [acamprosate, reference compound]
[4]; acamprosate 50 mg/kg, four doses over two days, positive control
  Relapse drinking (alcohol intake after deprivation): transient, but significant, reduction in relapse drinking

## CC(=O)Oc1ccccc1C(=O)O [aspirin, reference compound]
[9]
  Effect on allodynia, alone: do not have any significant effect on allodynia

## CN1CC[C@]23c4c5ccc(O)c4O[C@H]2[C@@H](O)C=C[C@H]3[C@H]1C5 [morphine, reference compound]
[10]
  Analgesia, each agent alone at the dose used for the combination: ineffective in producing analgesia
[3]; morphine alone 0.2 mg/kg
  Antihyperalgesic response: ~20%
